Source: patent US20250059164A1, “IRAK DEGRADERS AND USES THEREOF” (Kymera Therapeutics, Inc., priority 2023, published 2025)

What was measured:
[1] = Rodent pharmacokinetics (rat PK); format: in vivo; conditions: po, dosed intravenously or orally by gavage, plasma, read-out: F % (bioavailability)
Method in brief: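 Rats were dosed IV or by oral gavage, with jugular blood taken predose and at 5 min (IV only), 15, 30 min and 1, 2, 4, 8, 24 h. Plasma was separated by centrifugation at 4 °C. Oral bioavailability (F %) is coded A (≥5%) or B (≤5%).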

IRAK4 = target: T1, IRAK4 (Homo sapiens, UniProt Q9NWZ3); assay: IRAK4 MSD degradation in OCI-LY10; format: cell-based; conditions: OCI-LY10 cells, 24 hrs, Meso Scale Discovery
T1 construct: endogenous in cells; host or cells: OCI-LY10
T1 sequence (Q9NWZ3 1-460): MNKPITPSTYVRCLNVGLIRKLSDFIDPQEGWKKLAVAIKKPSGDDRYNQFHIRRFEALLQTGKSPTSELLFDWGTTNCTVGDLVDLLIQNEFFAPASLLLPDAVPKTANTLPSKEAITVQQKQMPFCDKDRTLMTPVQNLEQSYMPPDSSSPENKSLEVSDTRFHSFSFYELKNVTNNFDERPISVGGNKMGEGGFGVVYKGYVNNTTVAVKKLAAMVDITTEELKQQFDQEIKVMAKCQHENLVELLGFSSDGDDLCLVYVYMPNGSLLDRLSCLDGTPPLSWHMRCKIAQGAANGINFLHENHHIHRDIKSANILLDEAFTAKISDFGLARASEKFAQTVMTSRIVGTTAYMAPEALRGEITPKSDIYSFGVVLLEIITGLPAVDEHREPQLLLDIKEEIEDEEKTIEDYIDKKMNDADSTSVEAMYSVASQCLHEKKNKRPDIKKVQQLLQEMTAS
Method in brief: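 OCI-LY10 cells treated 4 to 24 hours at 37° C. with 8-dose 1:3 series, top 1 to 10 μM. IRAK4 in lysates quantified by MSD sandwich immunoassay (mouse capture, rabbit detection, SULFO-TAG anti-rabbit). DC50 from three-parameter logistic fit.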

Row | bioavailability [1] | DC50 (IRAK4) | SMILES
1 | ≤ 5% | 100 to 200 nM | Cn1c(=O)n(C2CCC(=O)NC2=O)c2cccc(N3CCC4(CCN(C[C@H]5CC[C@H](c6nc7cc(C(C)(C)O)c(NC(=O)c8cncc(C#N)c8)cc7s6)CC5)CC4(F)F)CC3)c21 (some centres unmarked) [I-364]
2 | ≥ 5% | < 10 nM | Cn1c(=O)n(C2CCC(=O)NC2=O)c2cccc(N3CCC4(CCN(C[C@H]5CC[C@H](n6cc7cc(NC(=O)c8cncc(C(F)(F)F)c8)c(C(C)(C)O)cc7n6)CC5)CC4(F)F)CC3)c21 (some centres unmarked) [I-365]
3 | ≤ 5% | < 10 nM | Cn1c(=O)n(C2CCC(=O)NC2=O)c2cccc(N3CC4(CCN(C[C@H]5CC[C@H](n6cc7cc(NC(=O)c8cncc(C#N)c8)c(C(C)(C)O)cc7n6)CC5)CC4(F)F)C3)c21 (some centres unmarked) [I-366]
4 | ≥ 5% | 10 to 100 nM | Cn1c(=O)n(C2CCC(=O)NC2=O)c2cccc(N3CC4(CCN(C[C@H]5CC[C@H](c6nc7cc(C(C)(C)O)c(NC(=O)c8cncc(C#N)c8)cc7s6)CC5)CC4(F)F)C3)c21 (some centres unmarked) [I-367]
5 | ≤ 5% | < 10 nM | Cn1c(=O)n(C2CCC(=O)NC2=O)c2cccc(N3CC4(CCN(C[C@H]5CC[C@H](n6cc7cc(NC(=O)c8cncc(C(F)(F)F)c8)c(C(C)(C)O)cc7n6)CC5)CC4(F)F)C3)c21 (some centres unmarked) [I-373]
6 | ≤ 5% | < 10 nM | COc1cc(NC(=O)c2cncc(C(F)(F)F)n2)cc2cn([C@H]3CC[C@H](CN4CC[C@@H](c5cccc6c5n(C)c(=O)n6C5CCC(=O)NC5=O)C(F)(F)C4)CC3)nc12 (some centres unmarked) [I-374]
7 | ≤ 5% | < 10 nM | Cn1c(=O)n(C2CCC(=O)NC2=O)c2cccc([C@@H]3CCN(C[C@H]4CC[C@H](n5cc6cc(NC(=O)c7cncc(C(F)(F)F)n7)cc(F)c6n5)CC4)CC3(F)F)c21 (some centres unmarked) [I-375]
8 | ≤ 5% | < 10 nM | Cn1c(=O)n(C2CCC(=O)NC2=O)c2cccc([C@@H]3CCN(C[C@H]4CC[C@H](n5cc6cc(NC(=O)c7cncc(C(F)F)n7)ccc6n5)CC4)CC3(F)F)c21 (some centres unmarked) [I-384]
9 | ≥ 5% | < 10 nM | Cn1c(=O)n(C2CCC(=O)NC2=O)c2cccc(N3CCC4(CCN(C[C@H]5CC[C@H](n6cc7cc(NC(=O)c8cncc(F)c8)c(C(C)(C)O)cc7n6)CC5)CC4(F)F)CC3)c21 (some centres unmarked) [I-386]
10 | ≤ 5% | < 10 nM | Cn1c(=O)n(C2CCC(=O)NC2=O)c2cccc(N3CCC4(CCN(C[C@H]5CC[C@H](n6cc7cc(NC(=O)c8cncc(Cl)c8)c(C(C)(C)O)cc7n6)CC5)CC4(F)F)CC3)c21 (some centres unmarked) [I-387]
11 | ≤ 5% | < 10 nM | Cn1c(=O)n(C2CCC(=O)NC2=O)c2ccc(F)c(N3CC4(CCN(C[C@H]5CC[C@H](n6cc7cc(NC(=O)c8cncc(C#N)c8)c(C(C)(C)O)cc7n6)CC5)CC4(F)F)C3)c21 (some centres unmarked) [I-388]
12 | ≤ 5% | < 10 nM | Cn1c(=O)n(C2CCC(=O)NC2=O)c2ccc(F)c(N3CCC4(CCN(C[C@H]5CC[C@H](n6cc7cc(NC(=O)c8cncc(C#N)c8)c(C(C)(C)O)cc7n6)CC5)CC4(F)F)CC3)c21 (some centres unmarked) [I-393]
13 | ≥ 5% | > 200 nM | COc1cc(C(=O)Nc2ccc3nn([C@H]4CC[C@H](CN5CC[C@@H](c6cccc7c6n(C)c(=O)n7C6CCC(=O)NC6=O)[C@H](F)C5)CC4)cc3c2)nc(C(F)(F)F)c1 (some centres unmarked) [I-394]
14 | ≥ 5% | > 200 nM | Cc1cc(C(=O)Nc2ccc3nn([C@H]4CC[C@H](CN5CC[C@@H](c6cccc7c6n(C)c(=O)n7C6CCC(=O)NC6=O)[C@H](F)C5)CC4)cc3c2)nc(C(F)(F)F)c1 (some centres unmarked) [I-395]
15 | ≤ 5% | > 200 nM | COc1cc2nn([C@H]3CC[C@H](CN4CCC5(CCN(c6cccc7c6n(C)c(=O)n7C6CCC(=O)NC6=O)CC5)C(F)(F)C4)CC3)cc2cc1C(=O)Nc1cccc(C(F)(F)F)n1 (some centres unmarked) [I-396]
16 | ≤ 5% | < 10 nM | CC(C)(O)c1cc2nn([C@H]3CC[C@H](CN4CCC5(CCN(c6cccc7c(N8CCC(=O)NC8=O)cncc67)CC5)C(F)(F)C4)CC3)cc2cc1NC(=O)c1cncc(C#N)c1 [I-400]
17 | ≤ 5% | 10 to 100 nM | Cn1nc(N2CCC(=O)NC2=O)c2cccc(N3CCC4(CCN(C[C@H]5CC[C@H](n6cc7cc(NC(=O)c8cncc(C#N)c8)c(C(C)(C)O)cc7n6)CC5)CC4(F)F)CC3)c21 [I-404]
18 | ≤ 5% | 10 to 100 nM | Cn1c(=O)n(C2CCC(=O)NC2=O)c2cccc([C@@H]3CCN(C[C@H]4CC[C@H](c5nc6cc(C(C)(C)O)c(NC(=O)c7cncc(C#N)c7)cc6o5)CC4)C[C@H]3F)c21 (some centres unmarked) [I-405]
19 | ≤ 5% | > 200 nM | Cn1c(=O)n(C2CCC(=O)NC2=O)c2cccc(N3CCC4(CCN(C[C@H]5CC[C@H](c6nc7cc(C(C)(C)O)c(NC(=O)c8cncc(C#N)c8)cc7o6)CC5)CC4(F)F)CC3)c21 (some centres unmarked) [I-406]
20 | ≤ 5% | 10 to 100 nM | Cn1c(=O)n(C2CCC(=O)NC2=O)c2cccc(N3CCC4(CCN(C[C@H]5CC[C@H](c6nc7cc(C(C)(C)O)c(NC(=O)c8cccc(C(F)(F)F)n8)cc7s6)CC5)CC4(F)F)CC3)c21 (some centres unmarked) [I-407]
21 | ≥ 5% | > 200 nM | Cn1c(=O)n(C2CCC(=O)NC2=O)c2cccc(N3CCC4(CCN(C[C@H]5CC[C@H](c6nc7cc(C(C)(C)O)c(NC(=O)c8cccc(C(F)(F)F)n8)cc7o6)CC5)CC4(F)F)CC3)c21 (some centres unmarked) [I-408]
22 | ≥ 5% | 10 to 100 nM | Cn1c(=O)n(C2CCC(=O)NC2=O)c2cccc(N3CC4(CCN(C[C@H]5CC[C@H](c6nc7cc(C(C)(C)O)c(NC(=O)c8cccc(C(F)(F)F)n8)cc7s6)CC5)CC4(F)F)C3)c21 (some centres unmarked) [I-409]
23 | ≥ 5% | > 200 nM | Cn1c(=O)n(C2CCC(=O)NC2=O)c2cccc(N3CC4(CCN(C[C@H]5CC[C@H](c6nc7cc(C(C)(C)O)c(NC(=O)c8cncc(C#N)c8)cc7o6)CC5)CC4(F)F)C3)c21 (some centres unmarked) [I-410]
24 | ≥ 5% | > 200 nM | Cn1c(=O)n(C2CCC(=O)NC2=O)c2cccc(N3CC4(CCN(C[C@H]5CC[C@H](c6nc7cc(C(C)(C)O)c(NC(=O)c8cccc(C(F)(F)F)n8)cc7o6)CC5)CC4(F)F)C3)c21 (some centres unmarked) [I-411]
25 | ≤ 5% | 100 to 200 nM | COc1ccc2c(c1N1CC3(CCN(C[C@H]4CC[C@H](c5nc6cc(C(C)(C)O)c(NC(=O)c7cncc(C#N)c7)cc6s5)CC4)CC3(F)F)C1)n(C)c(=O)n2C1CCC(=O)NC1=O (some centres unmarked) [I-412]
26 | ≤ 5% | > 200 nM | COc1ccc2c(c1N1CC3(CCN(C[C@H]4CC[C@H](c5nc6cc(C(C)(C)O)c(NC(=O)c7cncc(C#N)c7)cc6o5)CC4)CC3(F)F)C1)n(C)c(=O)n2C1CCC(=O)NC1=O (some centres unmarked) [I-413]
27 | ≤ 5% | > 200 nM | COc1ccc2c(c1N1CC3(CCN(C[C@H]4CC[C@H](c5nc6cc(C(C)(C)O)c(NC(=O)c7cccc(C(F)(F)F)n7)cc6s5)CC4)CC3(F)F)C1)n(C)c(=O)n2C1CCC(=O)NC1=O (some centres unmarked) [I-414]
28 | ≤ 5% | < 10 nM | COc1ccc2c(c1N1CC3(CCN(C[C@H]4CC[C@H](c5nc6cc(C(C)(C)O)c(NC(=O)c7cccc(C(F)(F)F)n7)cc6o5)CC4)CC3(F)F)C1)n(C)c(=O)n2C1CCC(=O)NC1=O (some centres unmarked) [I-415]
